Source: PubChem BioAssay AID330 (DTP/NCI, 2004)
Several values for one entry are separate records, joined by “and”; a condition that tells them apart may be missing. Equal values may be shown once. Toxic doses and inconclusive results are not listed. How the source made its calls: active means survival T/C of 150% or more; inactive means T/C below 125% in these data.

Tested on: P388 leukemia ip, CD2F1 mice, survival T/C
Experiment: NCI In Vivo Anticancer Drug Screen. Data for tumor model P388 Leukemia (intraperitoneal) in CD2F1 (CDF1) mice
Settings: endpoint: median survival time, higher = longer survival
Summary of the method: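 Mice carrying the transplanted tumor received test compound or vehicle. Survival was recorded in each group, and the value is the treated-group measurement divided by that of the vehicle-treated control group.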

[1] = dose: 100.0 mg/kg/injection, schedule: Q04DX002 (ip), vehicle: saline
[2] = dose: 200.0 mg/kg/injection, schedule: Q04DX002 (ip), vehicle: saline
[3] = dose: 60.0 mg/kg/injection, schedule: Q01DX005 (ip), vehicle: Klucel (hydroxypropylcellulose) (HPC)
[4] = dose: 120.0 mg/kg/injection, schedule: Q01DX005 (ip), vehicle: Klucel (hydroxypropylcellulose) (HPC)
[5] = dose: 240.0 mg/kg/injection, schedule: Q01DX005 (ip), vehicle: Klucel (hydroxypropylcellulose) (HPC)
[6] = dose: 25.0 mg/kg/injection, schedule: Q01DX009 (ip), vehicle: saline with Tween-80
[7] = dose: 50.0 mg/kg/injection, schedule: Q01DX009 (ip), vehicle: saline with Tween-80
[8] = dose: 100.0 mg/kg/injection, schedule: Q01DX009 (ip), vehicle: saline with Tween-80
[9] = dose: 50.0 mg/kg/injection, schedule: Q01DX005 (ip), vehicle: saline with Tween-80
[10] = dose: 100.0 mg/kg/injection, schedule: Q01DX005 (ip), vehicle: saline with Tween-80
[11] = dose: 200.0 mg/kg/injection, schedule: Q01DX005 (ip), vehicle: saline with Tween-80
[12] = dose: 50.0 mg/kg/injection, schedule: Q01DX005 (ip), vehicle: Klucel (hydroxypropylcellulose) (HPC)
[13] = dose: 100.0 mg/kg/injection, schedule: Q01DX005 (ip), vehicle: Klucel (hydroxypropylcellulose) (HPC)
[14] = dose: 3.13 mg/kg/injection, schedule: Q01DX009 (ip), vehicle: water
[15] = dose: 6.25 mg/kg/injection, schedule: Q01DX009 (ip), vehicle: water

Measured: T/C

C[C@@H](N)C(=O)NC(CO)CC(N)C=O (stereo not given in full)
inactive: dose: 50.0 mg/kg/injection, schedule: Q04DX002 (ip), vehicle: saline 105 % of control and 115 % of control | [1] 111 % of control and 120 % of control | [2] 109 % of control and 121 % of control | dose: 400.0 mg/kg/injection, schedule: Q04DX002 (ip), vehicle: saline 122 % of control

O=C1C2=C(Nc3cc([N+](=O)[O-])ccc3N2)OC1c1ccccc1O (stereo not given)
inactive: dose: 30.0 mg/kg/injection, schedule: Q01DX005 (ip), vehicle: Klucel (hydroxypropylcellulose) (HPC) 106 % of control | [3] 103 % of control and 90 % of control | [4] 101 % of control | [5] 90 % of control

O=C1OCC23CC(=O)C(O)(c4oc(CO)cc(=O)c4O)C(CC12)O3 (stereo not given)
inactive: [6] 97 % of control | [7] 100 % of control | [8] 100 % of control

O=S(=O)(F)c1ncnc2nc[nH]c12
inactive: [9] 93 % of control | [10] 103 % of control | [11] 112 % of control

Cc1ccc(NC(=S)SCc2ccc(Cl)c(Cl)c2)cc1C
inactive: dose: 50.0 mg/kg/injection, schedule: Q01DX009 (ip), vehicle: Klucel (hydroxypropylcellulose) (HPC) 116 % of control | dose: 50.0 mg/kg/injection, schedule: Q01DX009 (ip), vehicle: suspension in saline 96 % of control | dose: 100.0 mg/kg/injection, schedule: Q01DX009 (ip), vehicle: Klucel (hydroxypropylcellulose) (HPC) 113 % of control | dose: 100.0 mg/kg/injection, schedule: Q01DX009 (ip), vehicle: suspension in saline 100 % of control | dose: 200.0 mg/kg/injection, schedule: Q01DX009 (ip), vehicle: Klucel (hydroxypropylcellulose) (HPC) 109 % of control | dose: 200.0 mg/kg/injection, schedule: Q01DX009 (ip), vehicle: suspension in saline 101 % of control

O=CNc1c2ccccc2c(NC=O)c2ccccc12
inactive: [9] 92 % of control | [10] 88 % of control | [11] 101 % of control

Nc1nnn(/N=C\c2ccccc2)n1
inactive: [12] 92 % of control | [13] 92 % of control

Nc1ccc(/C=C/c2cccc3cccnc23)cc1
inactive: dose: 12.5 mg/kg/injection, schedule: Q01DX009 (ip), vehicle: saline with Tween-80 96 % of control | [6] 96 % of control | [7] 93 % of control

O=C1CC2CC3C1C2n1c(=O)n(-c2ccccc2)c(=O)n13 (stereo not given)
inactive: dose: 100.0 mg/kg/injection, schedule: Q01DX001 (ip), vehicle: Klucel (hydroxypropylcellulose) (HPC) 107 % of control | dose: 200.0 mg/kg/injection, schedule: Q01DX001 (ip), vehicle: Klucel (hydroxypropylcellulose) (HPC) 101 % of control | dose: 400.0 mg/kg/injection, schedule: Q01DX001 (ip), vehicle: Klucel (hydroxypropylcellulose) (HPC) 96 % of control

CC(=O)c1c(O)c(C)c(O)c2c1OC1=Cc3onc(C)c3C(=O)C12C (stereo not given)
inactive: dose: 50.0 mg/kg/injection, schedule: Q01DX009 (ip), vehicle: gum acacia 99 % of control and 102 % of control | dose: 100.0 mg/kg/injection, schedule: Q01DX009 (ip), vehicle: gum acacia 102 % of control and 104 % of control | dose: 200.0 mg/kg/injection, schedule: Q01DX009 (ip), vehicle: gum acacia 92 % of control and 93 % of control

C[n+]1c(-c2cc(Cl)cc(Cl)c2)c2cc(N)ccc2c2ccccc21
inactive: [14] 120 % of control | [15] 122 % of control | dose: 12.5 mg/kg/injection, schedule: Q01DX009 (ip), vehicle: water 114 % of control | dose: 25.0 mg/kg/injection, schedule: Q01DX009 (ip), vehicle: water 102 % of control

O=C(O)CC[n+]1cccc2c1C(=O)C(=O)c1ncccc1-2
inactive: [1] 114 % of control | [2] 107 % of control

COc1cccc2c1C(=O)c1c(O)c3c(c(O)c1C2=O)C[C@@](O)(C(C)O)C[C@@H]3OC1CC(N(C)C)C(O)C(C)O1 (stereo not given in full)
inactive: dose: 2.35 mg/kg/injection, schedule: Q04DX003 (ip), vehicle: water 107 % of control | dose: 9.4 mg/kg/injection, schedule: Q04DX003 (ip), vehicle: water 111 % of control | dose: 75.0 mg/kg/injection, schedule: Q04DX003 (ip), vehicle: water 108 % of control
active: dose: 0.78 mg/kg/injection, schedule: Q01DX009 (ip), vehicle: water 152 % of control | dose: 1.56 mg/kg/injection, schedule: Q01DX009 (ip), vehicle: water 159 % of control and 161 % of control | [14] 165 % of control and 172 % of control | [15] 198 % of control and 209 % of control

COc1cc2c(cc1OC)-c1c3c(cc4c1[C@H](C2)N(C)CC4)OCO3
inactive: dose: 200.0 mg/kg/injection, schedule: Q04DX003 (ip), vehicle: saline with Tween-80 110 % of control | dose: 400.0 mg/kg/injection, schedule: Q04DX003 (ip), vehicle: saline with Tween-80 110 % of control

NC(N)=N/N=C1C=C/C(=N/N=C(N)N)C/1
inactive: dose: 25.0 mg/kg/injection, schedule: Q01DX001 (ip), vehicle: saline 104 % of control | dose: 50.0 mg/kg/injection, schedule: Q01DX001 (ip), vehicle: saline 100 % of control | dose: 100.0 mg/kg/injection, schedule: Q01DX001 (ip), vehicle: saline 107 % of control | dose: 200.0 mg/kg/injection, schedule: Q01DX001 (ip), vehicle: saline 94 % of control

CC1(c2cccc(N(CCCl)CCCl)c2)NC(=O)NC1=O (stereo not given)
active: [6] 166 % of control | [7] 184 % of control and 204 % of control
inactive: [8] 90 % of control

Cc1cc(=O)c2ccc(Cl)c(C)c2[nH]1
inactive: dose: 60.0 mg/kg/injection, schedule: Q01DX005 (ip), vehicle: saline with Tween-80 110 % of control | dose: 120.0 mg/kg/injection, schedule: Q01DX005 (ip), vehicle: saline with Tween-80 93 % of control | dose: 240.0 mg/kg/injection, schedule: Q01DX005 (ip), vehicle: saline with Tween-80 103 % of control

Cc1ccc2nc(N/N=C(\c3ccccc3)c3ccccn3)cc(C)c2c1
inactive: [9] 100 % of control | [10] 112 % of control

c1ccc(CC2NC(Cc3ccccc3)N3C(Cc4ccccc4)N23)cc1 (stereo not given)
inactive: dose: 100.0 mg/kg/injection, schedule: Q04DX003 (ip), vehicle: Klucel (hydroxypropylcellulose) (HPC) 102 % of control | dose: 200.0 mg/kg/injection, schedule: Q04DX003 (ip), vehicle: Klucel (hydroxypropylcellulose) (HPC) 100 % of control | dose: 400.0 mg/kg/injection, schedule: Q04DX003 (ip), vehicle: Klucel (hydroxypropylcellulose) (HPC) 93 % of control

C=Cn1c([N+](=O)[O-])cnc1/C=C/c1ccc(C(=O)N(CC)CC)cc1
inactive: dose: 100.0 mg/kg/injection, schedule: Q04DX002 (ip), vehicle: saline with Tween-80 99 % of control | dose: 200.0 mg/kg/injection, schedule: Q04DX002 (ip), vehicle: saline with Tween-80 100 % of control | dose: 400.0 mg/kg/injection, schedule: Q04DX002 (ip), vehicle: saline with Tween-80 100 % of control

Cc1ccc(C(C)(C)C)cc1Br
inactive: dose: 100.0 mg/kg/injection, schedule: Q01DX001 (ip), vehicle: other 95 % of control | dose: 200.0 mg/kg/injection, schedule: Q01DX001 (ip), vehicle: other 100 % of control | dose: 400.0 mg/kg/injection, schedule: Q01DX001 (ip), vehicle: other 88 % of control

COc1cccc(/C=N\c2nc(-c3ccccc3Cl)cs2)c1O
inactive: [12] 89 % of control | [13] 94 % of control | dose: 200.0 mg/kg/injection, schedule: Q01DX005 (ip), vehicle: Klucel (hydroxypropylcellulose) (HPC) 105 % of control

CCCCCOCC(=O)OC
inactive: [7] 98 % of control | [8] 102 % of control | dose: 200.0 mg/kg/injection, schedule: Q01DX009 (ip), vehicle: saline with Tween-80 103 % of control

COc1cccc(C2(O)CCCc3c(C)ccnc32)c1 (stereo not given)
inactive: [3] 103 % of control | [4] 112 % of control | [5] 115 % of control

C(=C\c1cccs1)/c1ccnnc1
inactive: dose: 25.0 mg/kg/injection, schedule: Q01DX009 (ip), vehicle: saline 101 % of control | dose: 50.0 mg/kg/injection, schedule: Q01DX009 (ip), vehicle: saline 99 % of control | dose: 100.0 mg/kg/injection, schedule: Q01DX009 (ip), vehicle: saline 86 % of control and 96 % of control

NS(=O)(=O)Oc1ccccc1C(=O)Oc1ccccc1Cl
inactive: [3] 99 % of control | [4] 99 % of control | [5] 94 % of control
